Data reported in patent US20240150342A1, “ESTROGEN-RELATED RECEPTOR ALPHA MODULATORS” (LEAD PHARMA HOLDING B.V., priority 2019, published 2024).

molecular target: T1, ERRα ligand binding domain (ERRα-LBD) (Homo sapiens, UniProt P11474); assay: ERRα AlphaScreen Assay; assay type: biochemical; details: disruption of binding of ERRα-LBD protein to biotin-PGC1α-3 co-activator peptide; read-out: mean pIC50 (converted)
T1 construct: made in house; host or cells: E. coli
T1 sequence (P11474 193-421 limits assumed): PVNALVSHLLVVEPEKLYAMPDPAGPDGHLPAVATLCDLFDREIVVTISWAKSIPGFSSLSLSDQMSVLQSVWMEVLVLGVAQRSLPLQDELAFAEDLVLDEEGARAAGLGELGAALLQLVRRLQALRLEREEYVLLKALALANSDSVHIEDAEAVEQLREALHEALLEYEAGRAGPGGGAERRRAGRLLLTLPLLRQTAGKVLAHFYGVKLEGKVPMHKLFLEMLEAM
Text: This assay was based on the knowledge that nuclear receptors interact with cofactors in a ligand dependent matter. The sites of interaction have been mapped to LXXLL motifs that are present in the co-activator sequences. Short peptide sequences that contain the LXXLL motif mimic the behavior of full length co-activators.
The ERRα AlphaScreen Assay described here relies on the interaction of the co-activator peptide with purified bacterial- expressed ERRα ligand binding domain (ERRα-LBD); upon ligand binding, the ERRα protein can undergo a conformational change resulting in a loss of co-activator binding.
Compounds of the present invention were tested for their ability to disrupt binding of ERRα-LBD protein to co-activator peptide using AlphaScreen® Technology (Perkin Elmer). ERRα-LBD protein was expressed in E. coli as a 6×His Small Ubiquitin-like Modifier (SUMO) fusion. Bacterial expressed 6His-SUMO-ERRα-LBD protein was purified using affinity chromatography. All experiments were performed at room temperature in 384-well white non-binding plates (Greiner) using 50 mM Tris-HCl pH 7.5, 100 mM NaCl, 0.1% Pluronic F-127, 0.05% BSA and 5 mM TCEP as the buffer. Final DMSO concentration was 1% in the assay. Compounds were assayed in triplicate and: incubated with 0.81 nM ERRα-LBD protein and 10 μg/mL streptavidin donor beads and 10 μg/mL Ni-chelate acceptor beads for 1 hour at room temperature; followed by a 2-hour incubation with 15 nM biotin-PGC1α-3 peptide (QRRPCSELLKYLTTNDDPP) corresponding to amino acids 202 to 220.
The AlphaScreen signal was measured using an Envision Xcite plate reader (Perkin Elmer). Data was normalized, and curve fitting analysis was performed in GraphPad Prism 7 using a four-parameter dose-response fit.

Row | SMILES | IC50 [nM]
1 | COc1cc(C2CC(=O)Nc3n[nH]cc32)ccc1Oc1cc(C(F)(F)F)cc(C(F)(F)F)c1 (single isomer, unassigned; (+)) [Example 79, (+)-4-{4-[3,5-bis(trifluoromethyl)phenoxy]-3-methoxyphenyl}-2H,4H,5H,6H,7H-pyrazolo[3,4-b]pyridin-6-one] | 100 to 1000
2 | COc1cc(C2CC(=O)Nc3n[nH]cc32)ccc1Oc1cc(C)cc(C)c1 (single isomer, unassigned; (+)) [Example 81, (+)-4-[4-(3,5-dimethylphenoxy)-3-methoxyphenyl]-2H,4H,5H,6H,7H-pyrazolo[3,4-b]pyridin-6-one] | 100 to 1000
3 | COc1cc(C2CC(=O)Nc3n[nH]cc32)ccc1Oc1cc(C)cc(C(F)(F)F)c1 (single isomer, unassigned; (+)) [Example 83, (+)-4-{3-methoxy-4-[3-methyl-5-(trifluoromethyl)phenoxy]phenyl}-2H,4H,5H,6H,7H-pyrazolo[3,4-b]pyridin-6-one] | 100 to 1000
4 | COc1cc(C2CC(=O)Nc3n[nH]cc32)ccc1Oc1cc(C(F)F)cc(C(F)(F)F)c1 (single isomer, unassigned; (+)) [Example 85, (+)-4-{4-[3-(difluoromethyl)-5-(trifluoromethyl)phenoxy]-3-methoxyphenyl}-2H,4H,5H,6H,7H-pyrazolo[3,4-b]pyridin-6-one] | 100 to 1000
5 | COc1cc(C2CC(=O)Nc3n[nH]cc32)ccc1Oc1cc(C)cc(C)c1 (single isomer, unassigned; (-)) [Example 82, (−)-4-[4-(3,5-dimethylphenoxy)-3-methoxyphenyl]-2H,4H,5H,6H,7H-pyrazolo[3,4-b]pyridin-6-one] | 10 to 100
6 | COc1cc(C2CC(=O)Nc3n[nH]cc32)ccc1Oc1cccc(C)c1 (centres unmarked) [Example 1, 4-[3-methoxy-4-(3-methylphenoxy)phenyl]-2H,4H,5H,6H, 7H-pyrazolo[3,4-b]pyridin-6-one] | 100 to 1000
7 | COc1cc(C2CC(=O)Nc3n[nH]cc32)ccc1Oc1ccc(C#N)cc1C(F)(F)F (centres unmarked) [Example 2, 4-(2-methoxy-4-{6-oxo-2H,4H,5H,6H,7H-pyrazolo[3,4-b]pyridin-4-yl}phenoxy)-3-(trifluoromethyl)benzonitrile] | 100 to 1000
8 | COc1cc(C2CC(=O)Nc3n[nH]cc32)ccc1Oc1ccccc1C(F)(F)F (centres unmarked) [Example 4, 4-{3-methoxy-4-[2-(trifluoromethyl)phenoxy]phenyl}-2H,4H,5H,6H,7H-pyrazolo[3,4-b]pyridin-6-one] | 100 to 1000
9 | COc1cc(C2CC(=O)Nc3n[nH]cc32)ccc1Oc1ccc(C(F)(F)F)cc1 (centres unmarked) [Example 5, 4-{3-methoxy-4-[4-(trifluoromethyl)phenoxy]phenyl}-2H,4H,5H,6H,7H-pyrazolo[3,4-b]pyridin-6-one] | 100 to 1000
10 | COc1cc(C2CC(=O)Nc3n[nH]cc32)ccc1Oc1cccc(C(F)(F)F)c1 (centres unmarked) [Example 6, 4-{3-methoxy-4-[3-(trifluoromethyl)phenoxy]phenyl}-2H,4H,5H,6H,7H-pyrazolo[3,4-b]pyridin-6-one] | 100 to 1000
11 | COc1cc(C2CC(=O)Nc3n[nH]cc32)ccc1Oc1ccccc1Br (centres unmarked) [Example 7, 4-[4-(2-bromophenoxy)-3-methoxyphenyl]-2H,4H,5H,6H,7H-pyrazolo[3,4-b]pyridin-6-one] | 100 to 1000
12 | COc1cc(C2CC(=O)Nc3n[nH]cc32)ccc1Oc1ccccc1OC(F)(F)F (centres unmarked) [Example 12, 4-{3-methoxy-4-[2-(trifluoromethoxy)phenoxy]phenyl}-2H,4H,5H,6H,7H-pyrazolo[3,4-b]pyridin-6-one] | 10 to 100
13 | COc1cc(C2CC(=O)Nc3n[nH]cc32)ccc1Oc1cccc(Br)c1 (centres unmarked) [Example 14, 4-[4-(3-bromophenoxy)-3-methoxyphenyl]-2H,4H,5H,6H,7H-pyrazolo[3,4-b]pyridin-6-one] | 100 to 1000
14 | COc1cc(C2CC(=O)Nc3n[nH]cc32)ccc1Oc1cccc(C(C)(C)C)c1 (centres unmarked) [Example 15, 4-[4-(3-tert-butylphenoxy)-3-methoxyphenyl]-2H,4H,5H,6H,7H-pyrazolo[3,4-b]pyridin-6-one] | 10 to 100
15 | COc1cc(C2CC(=O)Nc3n[nH]cc32)ccc1Oc1cccc(OC(F)(F)F)c1 (centres unmarked) [Example 17, 4-{3-methoxy-4-[3-(trifluoromethoxy)phenoxy]phenyl}-2H,4H,5H,6H,7H-pyrazolo[3,4-b]pyridin-6-one] | 100 to 1000
16 | CCc1ccccc1Oc1ccc(C2CC(=O)Nc3n[nH]cc32)cc1OC (centres unmarked) [Example 20, 4-[4-(2-ethylphenoxy)-3-methoxyphenyl]-2H,4H,5H,6H,7H-pyrazolo[3,4-b]pyridin-6-one] | 100 to 1000

Row | SMILES | IC50 [nM]
17 | CCc1cccc(Oc2ccc(C3CC(=O)Nc4n[nH]cc43)cc2OC)c1 (centres unmarked) [Example 21, 4-[4-(3-ethylphenoxy)-3-methoxyphenyl]-2H,4H,5H,6H,7H-pyrazolo[3,4-b]pyridin-6-one] | 100 to 1000
18 | CCCc1ccccc1Oc1ccc(C2CC(=O)Nc3n[nH]cc32)cc1OC (centres unmarked) [Example 22, 4-[3-methoxy-4-(2-propylphenoxy)phenyl]-2H,4H,5H,6H,7H-pyrazolo[3,4-b]pyridin-6-one] | 100 to 1000
19 | COc1cc(C2CC(=O)Nc3n[nH]cc32)ccc1Oc1ccccc1C(C)C (centres unmarked) [Example 23, 4-{3-methoxy-4-[2-(propan-2-yl)phenoxy]phenyl}-2H,4H,5H,6H,7H-pyrazolo[3,4-b]pyridin-6-one] | 10 to 100
20 | COc1cc(C2CC(=O)Nc3n[nH]cc32)ccc1Oc1ccccc1-c1ccccc1 (centres unmarked) [Example 24, 4-[3-methoxy-4-(2-phenylphenoxy)phenyl]-2H,4H,5H,6H,7H-pyrazolo[3,4-b]pyridin-6-one] | 100 to 1000
21 | COc1cc(C2CC(=O)Nc3n[nH]cc32)ccc1Oc1ccccc1C1CCCC1 (centres unmarked) [Example 25, 4-[4-(2-cyclopentylphenoxy)-3-methoxyphenyl]-2H,4H,5H,6H,7H-pyrazolo[3,4-b]pyridin-6-one] | 100 to 1000
22 | COc1cc(C2CC(=O)Nc3n[nH]cc32)ccc1Oc1ccccc1Cc1ccccc1 (centres unmarked) [Example 26, 4-[4-(2-benzylphenoxy)-3-methoxyphenyl]-2H,4H,5H,6H,7H-pyrazolo[3,4-b]pyridin-6-one] | 100 to 1000
23 | COc1ccc(Oc2ccc(C3CC(=O)Nc4n[nH]cc43)cc2OC)c(C(C)(C)C)c1 (centres unmarked) [Example 27, 4-[4-(2-tert-butyl-4-methoxyphenoxy)-3-methoxyphenyl]-2H,4H,5H,6H,7H-pyrazolo[3,4-b]pyridin-6-one] | ≤ 10
24 | COc1cc(C2CC(=O)Nc3n[nH]cc32)ccc1Oc1ccccc1C1CC1 (centres unmarked) [Example 28, 4-[4-(2-cyclopropylphenoxy)-3-methoxyphenyl]-2H,4H,5H,6H,7H-pyrazolo[3,4-b]pyridin-6-one] | 10 to 100
25 | COc1cc(C2CC(=O)Nc3n[nH]cc32)ccc1Oc1cccc(C(C)C)c1 (centres unmarked) [Example 30, 4-{3-methoxy-4-[3-(propan-2-yl)phenoxy]phenyl}-2H,4H,5H,6H,7H-pyrazolo[3,4-b]pyridin-6-one] | 10 to 100
26 | COc1cc(C2CC(=O)Nc3n[nH]cc32)ccc1Oc1cccc(C2CC2)c1 (centres unmarked) [Example 31, 4-[4-(3-cyclopropylphenoxy)-3-methoxyphenyl]-2H,4H,5H,6H,7H-pyrazolo[3,4-b]pyridin-6-one] | 10 to 100
27 | COC(=O)c1ccc(Oc2ccc(C3CC(=O)Nc4n[nH]cc43)cc2OC)c2ccccc12 (centres unmarked) [Example 36, methyl 4-(2-methoxy-4-{6-oxo-2H,4H,5H,6H,7H-pyrazolo[3,4-b]pyridin-4-yl}phenoxy)naphthalene-1-carboxylate] | ≤ 10
28 | COc1cc(C2CC(=O)Nc3n[nH]cc32)ccc1Oc1cc(Br)cc(C(F)(F)F)c1 (centres unmarked) [Example 42, 4-{4-[3-bromo-5-(trifluoromethyl)phenoxy]-3-methoxyphenyl}-2H,4H,5H,6H,7H-pyrazolo[3,4-b]pyridin-6-one] | 10 to 100
29 | COc1cc(C2CC(=O)Nc3n[nH]cc32)ccc1Oc1cc(C(C)(C)C)cc(C(C)(C)C)c1 (centres unmarked) [Example 44, 4-[4-(3,5-di-tert-butylphenoxy)-3-methoxyphenyl]-2H,4H,5H,6H,7H-pyrazolo[3,4-b]pyridin-6-one] | 10 to 100
30 | COc1cc(C2CC(=O)Nc3n[nH]cc32)ccc1Oc1ccccc1C12CC(C1)C2 (centres unmarked) [Example 45, 4-[4-(2-{bicyclo[1.1.1]pentan-1-yl}phenoxy)-3-methoxyphenyl]-2H,4H,5H,6H,7H-pyrazolo[3,4-b]pyridin-6-one] | 10 to 100
31 | COc1cc(C2CC(=O)Nc3n[nH]cc32)ccc1Oc1ccc(C#N)c2ccccc12 (centres unmarked) [Example 46, 4-(2-methoxy-4-{6-oxo-2H,4H,5H,6H,7H-pyrazolo[3,4-b]pyridin-4-yl}phenoxy)naphthalene-1-carbonitrile] | 10 to 100
32 | COc1cc(C2CC(=O)Nc3n[nH]cc32)ccc1Oc1cccc2c1CCC2 (centres unmarked) [Example 47, 4-[4-(2,3-dihydro-1H-inden-4-yloxy)-3-methoxyphenyl]-2H,4H,5H,6H,7H-pyrazolo[3,4-b]pyridin-6-one] | 10 to 100
